Laboratory results: paper PMC3602417 (MedChemComm, 2013)
Like-named read-outs stand apart in the source and are kept apart here.

Experiments:
METH-evoked DA release = conditions: cited from earlier work
rats [1] = conditions: cited from earlier work
nAChRs = conditions: cited from earlier work
rats [2] = conditions: cited from earlier work; remark: listed apart in the source
water solubility = type: physicochemical
rats [3] = conditions: cited from earlier work; remark: listed apart in the source
VMAT2 [4] = target: T1, VMAT2 (Rattus norvegicus, UniProt Q01827); conditions: cited from earlier work
VMAT2 [5] = target: T1, VMAT2; conditions: read-out: [3H]DTBZ Ki ± SEM; Table 1; rat synaptic vesicle membranes; ref 12b; cited from earlier work
VMAT2 [6] = target: T1, VMAT2; assay: inhibition of [3H]DA uptake into rat striatal synaptic vesicles; type: biochemical
VMAT2 [7] = target: T1, VMAT2; assay: [3H]DTBZ binding to rat synaptic vesicle membranes
rats [8] = assay: METH self-administration; type: in vivo, rat; conditions: preliminary data
[9] = cited from earlier work
rats [10] = conditions: cited from earlier work; remark: listed apart in the source

T1 sequence (Q01827 whole entry): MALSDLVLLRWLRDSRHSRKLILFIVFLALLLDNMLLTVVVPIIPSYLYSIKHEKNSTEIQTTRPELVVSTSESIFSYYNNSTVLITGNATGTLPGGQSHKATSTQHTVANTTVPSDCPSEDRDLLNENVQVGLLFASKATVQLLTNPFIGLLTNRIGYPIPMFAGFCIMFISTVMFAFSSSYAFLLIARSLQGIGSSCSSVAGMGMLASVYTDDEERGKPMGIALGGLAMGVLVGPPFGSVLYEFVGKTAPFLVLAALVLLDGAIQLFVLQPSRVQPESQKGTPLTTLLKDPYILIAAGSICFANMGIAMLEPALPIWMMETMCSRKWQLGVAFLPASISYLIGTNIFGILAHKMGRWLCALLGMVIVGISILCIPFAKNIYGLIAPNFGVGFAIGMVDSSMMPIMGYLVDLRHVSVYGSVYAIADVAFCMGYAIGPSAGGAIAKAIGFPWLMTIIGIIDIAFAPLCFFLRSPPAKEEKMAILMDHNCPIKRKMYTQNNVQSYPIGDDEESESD

## CN1[C@@H](CC(=O)c2ccccc2)CCC[C@H]1C[C@H](O)c1ccccc1 [Compound 1, (−)-lobeline]
METH-evoked DA release; rat striatal slices
  effect on METH-evoked DA release: inhibits METH-evoked DA release from rat striatal slices
Rats [1]
  effect on METH-induced behavioral effects: attenuates METH-induced behavioral effects
nAChRs; α4β2* subtype
  affinity at nAChR α4β2* subtype: high affinity

## CN1[C@@H](CCc2ccccc2)CCC[C@H]1CCc1ccccc1 [Compound 2, lobelane, reference compound]
Rats [2]; rats
  effect on METH self-administration (SA): dose-dependently decreases METH self-administration
Water solubility
  water solubility: low water solubility
Rats [3]
  effect on food-maintained responding: without altering food-maintained responding
nAChRs; compared to lobeline
  activity at nAChRs: negligible activity

## c1ccc(CC[C@H]2CCC[C@@H](CCc3ccccc3)N2)cc1 [Compound 3, nor-lobelane]
VMAT2 [4]
  potency for VMAT2 binding and inhibition relative to lobelane: equal potency to lobelane

## CCN1[C@@H](CCc2ccccc2)CCC[C@H]1CCc1ccccc1 [Compound 4]
VMAT2 [5]
  Ki: 3410 ± 670 nM

## CCCN1[C@@H](CCc2ccccc2)CCC[C@H]1CCc1ccccc1 [Compound 5]
VMAT2 [5]
  Ki: 1870 ± 250 nM

## N#CCN1[C@@H](CCc2ccccc2)CCC[C@H]1CCc1ccccc1 [Compound 8]
VMAT2 [6]; relative to lobelane
  fold lower potency in inhibiting [3H]DA uptake at VMAT2 compared to lobelane: 100 fold

## CN(C)N1[C@@H](CCc2ccccc2)CCC[C@H]1CCc1ccccc1 [Compound 13]
VMAT2 [6]
  potency inhibiting [3H]DA uptake at VMAT2 relative to lobelane: equipotent to lobelane
VMAT2 [7]
  affinity at the [3H]DTBZ binding site: no affinity

## OC[C@H](O)CN1[C@@H](CCc2ccccc2)CCC[C@H]1CCc1ccccc1 [Compound 14a]
Rats [8]
  effect on METH SA, preliminary in vivo screens: decrease in METH SA in rats

## COc1ccc(CC[C@H]2CCC[C@@H](CCc3ccc(OC)cc3)N2C[C@@H](O)CO)cc1 [Compound 19a]
Rats [2]; compared to lobeline and lobelane
  duration of action to inhibit METH SA within a behavioral session: significantly increased duration of action
Rats [2]; rats
  effect on METH SA: effectively decreases
Rats [2]; repeated dosing
  tolerance to decrease of METH SA and CPP after repeated dosing: not observed
METH-evoked DA release; vesicles and striatal slices
  effect on METH-evoked DA release: decreasing METH-evoked DA release from vesicles and striatal slices without intrinsic activity
Rats [3]
  effect on food-maintained responding: without altering food-maintained responding
[9]
  CPP produced by the compound (abuse liability): does not produce CPP
  self-administration of the compound (abuse liability): not self-administered
Rats [10]
  effect on METH CPP: effectively decreases
